One data set can be described thus: in vivo. Conditions: mouse, oral, female mice. On the procedure: (§1) In female mice, the LD-50 on oral administration is 2,050 mg/kg. In male rats, the LD-0, on oral administration, is greater than 600 mg/kg.
Data set [1] can be described thus: Reduction of lipids and cholesterol in rats treated orally. Format: in vivo. The following applies: daily oral 10 mg/kg, 3-4 days.
For another data set, the system named is stomach and duodenum. Put plainly: Gastric tolerance in fasting rats. Format: in vivo. From the text:
It has furthermore been observed that CRL 40,293 is a well-tolerated substance.

A short description of another data set: Clinical tests in man. Conditions: man; gelatine-coated pills of 400 mg, 2 pills twice daily. The class given is in vivo. On the procedure:
The clinical tests have made it possible to confirm the pharmacological tests. Thus, in man, CRL 40,293 (Example 23) in the form of gelatine-coated pills containing 400 mg of active ingredient administered at the rate of 2 such pills twice daily has given good results in the treatment of circulatory complaints and especially of lipid disturbances.
CRL 40,386 (Example 8) has been used in man for the treatment of hyperlipidaemia in the form of gelatine-coated pills each containing 300 mg of active ingredient at the rate of 2 to 6 such pills per day.

The format of data set [2] is in vivo. The following applies: oral, male rats. The method, then:
as §1

Data set [3] concerns blood platelet aggregation. Put plainly: Anti-aggregation action in rats (graded / in words). Further details: key to Anti-aggregation action: -: zero activity; +: significant activity; ++: intense activity; +++: very intense activity. Format: in vivo.
Description: (a) by collagen: the inhibition of aggregation (which corresponds to the % transmission), the latency period and the speed; and
(b) by ADP: the inhibition of aggregation (that is to say the % transmission).
Data set [4] deals with cardio-vascular parameters. Description: Cardio-vascular activity in anaesthetised dogs. The class given is in vivo. The following applies: intraduodenal 100 then 200 mg/kg. On the procedure: Three anaesthetised dogs are used for this study. The product is administered intraduodenally as a gum suspension.
Two dogs with the thorax closed and respiring spontaneously are given CRL 40,293 at a dose of 100 mg/kg followed by 200 mg/kg, this second dose being administered 1 hour 30 minutes to 2 hours after the first.
One dog with the thorax opened is given 100 mg/kg, followed after 1 hour by 200 mg/kg, of CRL 40,293.
In these animals the effects of injections of noradrenalin, acetylcholine, tyramine, DMPP, histamine and serotonine were unchanged and the same is true of the effects of occlusion of the carotids and of stimulation of the central end and peripheral end of the vagus.

Data set [5] is described as follows: Hypo-lipidaemic and hypo-cholesterolaemic action of other products (Table V). The class given is in vivo, rats. The following applies: for change in vivo at 50 mg/kg: Rattus norvegicus, 72 h, oral 50 mg/kg for 3 days. From the text: The results of the anti-aggregation test and of the hypo-[…] action and hypo-cholesterolaemic action tests of other products of the invention have been […] Table V which follows, the code used being the following (for each dose shown): […]

Read-outs that look alike come from different tables or passages of the source.

As a reminder, the LD50 is the dose expected to kill half of the subjects tested. Consider `OCCOc1ccc(Oc2ccc(Cl)cc2)cc1` [CRL 40,293, 2-[4-(4-Chlorophenoxy)-phenoxy]ethanol], for which the LD50 in the data set “in vivo” was found to be 2050 mg/kg. Moreover, the decrease in cholesterol in data set [1] was 20%. The “decrease in total lipids” value in data set [1] is recorded as 20%. Further, in the data set on stomach and duodenum (fasting rats, 1 g/kg through a probang, 8 hours after administration), the “ulceration or inflammation of the stomach and of the duodenum” value was “no ulceration or inflammation of the stomach and of the duodenum is observed”. Moreover, the “tolerance (in words)” value in the data set with stomach and duodenum (rat, in vivo) was “well-tolerated”. Besides, in the data set “Clinical tests in man”, the “treatment of circulatory complaints and especially of lipid disturbances” value is “good results”. Also, the LD-0 entry in data set [2] is given as “greater than 600 mg/kg”. The Anti-aggregation action result in data set [3] (100 mg/kg per day for 3 days) is “+++”; in data set [3] (oral 50 mg/kg for 3 days) it was “++”. Also, the “change of parameters: arterial pressure, pulse rate, left intra-ventricular pressure, dp/dt, vertebral and femoral arterial flow rates, respiration” value in data set [4] (closed thorax, 2 hours' observation) is “None of the parameters measured changed”. In addition, the “effects of noradrenalin, acetylcholine, tyramine, DMPP, histamine and serotonine injections, carotid occlusion and vagus stimulation” value in data set [4] (dogs) was “unchanged”. Moreover, the “change of parameters: arterial pressure, pulse rate, left intraventricular pressure, dp/dt, aorta flow rate, work of left ventricle, coronary arterial flow rate” value in data set [4] (opened thorax, 2 hours' observation) is on record as “None of the parameters measured changed”. The change in vivo at 50 mg/kg in data set [5] (read-out: Cholesterol (change)) and in data set [5] (read-out: Total lipids (change)) was -40% in each case. The “hypo-lipidaemic and hypocholesterolaemic activity (in words)” value in data set [5] (oral 50 mg/kg) was “good hypo-lipidaemic and hypocholesterolaemic activity”.

Values taken from patent US4156011A, “Sulphur- and oxygen-containing diaryl compounds” (priority 1974, dated 1979).
